Source: patent publication US20250034520A1, “INCREASING DEVELOPMENTAL POTENTIAL OF HUMAN PREIMPLANTATION EMBRYOS BY REDUCING GENETIC INSTABILITY, ANEUPLOIDIES AND CHROMOSOMAL MOSAICISM” (THE TRUSTEES OF COLUMBIA UNIVERSITY IN THE CITY OF NEW YORK, priority 2022, published 2025)

Tests used:
[1] = tested on: mouse zygotes; assay: DNA damage foci immunostaining in mouse zygotes/embryos; assay type: cell-based
Experimental: (§1) Embryos, mouse and human, were cultured in Global Total (Life-Global) for the duration of the experiments and with added compounds as outlined below. Incubation in RNA polymerase inhibitors triptolide (1 mM) or alpha amanitin (20 mg/ml) was performed from the 2PN stage (day1) to day3 of human development. Incubation in aphidicolin was performed at 2 mM. […] Mirin was used at a concentration of 50 mM. Olaparib was used to inhibit PARP at a concentration of 10 mM. All experiments were conducted during incubation at 37° C. with 5% CO2 and 19-20% O2. Chemical stock solutions were prepared in DMSO at concentrations at least 1000× higher than the final concentration.
Mouse oocytes were activated at 1-6 hours post retrieval using 2 mM ionomycin (Sigma Aldrich) in Global Total medium for 5 minutes at 37° C. followed by culture in 10 mM puromycin and 5 mg/ml cytochalasin B for 3 hours, then cytochalasinB only for 2 hours and 10 minutes to prevent second polar body extrusion.
Following the experimental exposures, mouse and human embryos were fixed in 2% paraformaldehyde (PFA) and 0.25% Triton X-100 in PBS for 10 minutes at room temperature, serially washed in phosphate-buffered solution (PBS) at room temperature, then stored in PBS at 4° C. until staining and imaging. Embryos were placed in 10-20 ml droplets of primary antibody solution within plastic tissue culture dishes covered with mineral oil for 1 hour at room temperature, serially washed (×2) in PBS containing 0.01% Triton X-100 to prevent embryos sticking to oil, then transferred to 10-20 ml secondary antibody solution and Hoechst (dilution 1:500) for 30 minutes. Embryos were then serially washed (×2) and placed in 5 ml droplets of PBS with 0.5% serum albumin in uncoated glass bottom dishes (Mattek) covered with embryo culture oil for imaging. The following primary antibodies were used across experiments as described above: Oct-4, γH2AX, RPA32, RPA32 S4/S8, RPA32 S33, 53BP1, RAD51, Centromere, and phospho-CHK1. Phospho-specific antibodies were quality controlled through ATR dependence of foci formation in mouse zygotes, and for γH2AX also in human zygotes. […] The appropriate secondary antibodies conjugated with Alexa Fluor 488, Alexa Fluor 555, CF 568, or Alexa Fluor 647 were diluted at 1:500-1:1000. Ethynyl deoxyuridine (EdU) labeling of zygotes and embryos was performed using the labeling kit (Thermo Fisher Scientific) as described by the manufacturer. 10 mM EdU was added to culture medium for 1 h at the indicated time points, and cells were harvested and fixed thereafter. 5-ethynyl uridine (EU) labeling was performed by incubating day3 cleavage stage embryos for 4 hours in Global total containing 0.2 mM EU.
Embryos were imaged with confocal microscopy using a Zeiss LSM (LSM 710) at a magnification of 63× and the Zeiss Zen software. Images were obtained using 488-, 543- and 633-nm lasers and bright-field microscopy. The number of confocal sections was adjusted to capture the entire nucleus or the entire embryo according to the experimental design as described above. Cell numbers and staining foci numbers were counted manually. Nuclei were identified by the presence of Hoechst33342. Foci were identified if at least 3× greater intensity than nuclear average, spherical in appearance, and overlapping with Hoechst33342 staining. Inner cell masses were identified by the presence of Oct4 within a blastocyst embryo. Active DNA replication was identified by the presence of EdU. DNA damage was identified by the detection of γH2AX and RPA foci within the nucleus. Mechanisms of DNA repair were identified through the detection of RPA S4/S8, RPA S33, Rad51 and 53BP1 foci within the nucleus.

[2] = tested on: human embryos; assay: single-cell/single-nuclei sequencing chromosome content analysis, human embryos; assay type: cell-based
Experimental: as §1
Single cells from blastomeres were collected on the heated stage (Tokai Hit) of an Olympus IX71 inverted microscope equipped with Narishige micromanipulators and a zona pellucida laser (Hamilton-Thorne). Single nuclei were isolated from blastomeres by lysis and dissection of different nuclei using two […] diameter Piezo micropipettes and Holding pipette (Origio). Single embryo cells or nuclei were placed manually in single wells of a 96-well plate containing 9 ml of lysis buffer, prepared as a master mix of 798 ml H2O, 6 ml of 10 mg/mL Proteinase K solution (Sigma-Aldrich), and 96 ml 10× Single Cell Lysis and Fragmentation buffer (Sigma-Aldrich). Single cells/single nuclei were lysed by heating 96-well plates containing single cells/single nuclei at 50° C. for 1 hour, followed by incubation at 99° C. for four minutes using a PCR thermocycler. Single-cell/single-nuclei whole genome amplification (WGA) using degenerate oligo-nucleotide priming PCR (DOP-PCR) was performed using the SEQPLEX Enhanced DNA Amplification Kit (SEQXE, Sigma) according to the manufacturer's instructions. In addition, a modified version of the DOP-PCR protocol that allows inline indexing of WGA DNA was also applied. WGA DNA was subsequently processed for Illumina library sequencing preparation using standard TruSeq indexing methods via the NEBNext Ultra II DNA Library Prep Kit for Illumina (New England Biolabs). NEBNext Multiplex Oligos for Illumina (96 index primers) were used for four amplification cycles. Library DNA was quantified using Qubit dsDNA HS Assay Kit (Invitrogen, Carlsbad, CA, USA) and library size distribution was confirmed using a 2100 Bioanalyzer DNA 1000 Kit (Agilent, Santa Clara, CA, USA). A unimodal curve centered around 300-500 bp was scored as a successful library preparation. Subsequently, 30 mL of each pooled library was sent for sequencing at a concentration of 20 ng/ml. Mutiplex sequencing was performed using Illumina HiSeq 2500 single end indexed run (SR100) while targeting a coverage of approximately 1 million reads per cell/nuclei, sufficient for quantitative genome-wide copy number analysis.
Analysis of DNA sequencing data was performed as previously described (Baslan et al., 2015) with minor modifications as outlined below. Briefly, multiplex sequencing data were demultiplexed according to unique barcodes with reads assigned to their respective single-cell or single-nuclei. Unique reads were aligned to the reference human and mouse genome builds, hg19 and mm9, respectively. Each genome was partitioned into 5000 bins using a previously described algorithm (Varbin) that corrects for genome sequence mappability (Baslan et al., 2012; Navin et al., 2011). Uniquely mapped reads were sorted, indexed and subsequently counted within the partitioned genomic bins. For single-cell copy number inference, read count data were normalized genome-wide followed by CBS segmentation (Olshen et al., 2004) and transformed into integer copy number states using a least-squares fit approach (Baslan et al., 2015).
Copy number inference from single-nuclei sequencing data was performed similarly with the exception that bin read counts were initially processed using Kernel Density Estimation (KDE) resulting in two primary densities. […]

[3] = mice, aphidicolin incubation in G2 phase
[4] = aphidicolin and G2 checkpoint kinase inhibitor at 15.5 h

## C[C@@]1(CO)[C@H](O)CC[C@@]2(C)[C@H]1CC[C@H]1C[C@@H]3C[C@@]12CC[C@]3(O)CO [aphidicolin]
[1]; 4-8 cell stage, 48 h post activation
  markers of DNA damage (γH2AX, Rpa32, Rpa32 phosphoS33): increased
[1]; G2 arrested zygotes
  time to formation of phospho-RPA32, γH2AX and Rad51 foci after fork stalling: 2 to 4 h
  time to resolution of foci after release from the compound: 1 to 2 h
[1]; mice, aphidicolin incubation
  RPA32-positive foci per haploid nucleus, average: 4.5 per haploid nucleus
  γH2AX foci positive for RPA32: Approximately 10%
[1]; [3]
  mean γH2AX foci: 43
  γH2AX foci, range: 0-228
[2]; 4 2PN zygotes, aphidicolin and CHK1 inhibitor at 18 h post ICSI
  chromosomal breaks identified: 7
[2]; addition of aphidicolin to CHK1 inhibition in G2 phase
  aneuploidy: further amplified
[2]; [4]
  chromosomes with one or more segmental copy-number transitions, share: 27%
  independent break points per embryo, average: 51
  whole-chromosome losses, share of aneuploid chromosomes in micronuclei: 73%
[2]; aphidicolin and G2 checkpoint kinase inhibitor at 15.5 h, 21 micronuclei from 4 zygotes
  total break sites: 331
[2]; combined aphidicolin exposure and G2 checkpoint inhibition
  human embryos aneuploid: all
